Measured values as given in ChEMBL document CHEMBL1201862, “PubChem BioAssay data set” (2004).
Calls of active or inactive are those of the source.

Assays:
[1] = target: COUP transcription factor 2 (Homo sapiens, UniProt P24468); test: Luminescence-based cell-based high throughput dose response assay to identify inhibitors of COUP-TFII (NR2F2).; type: functional;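 also: HEK293 cells transiently cotransfected with COUP-TFII expression vector and reporter; luciferase reporter luminescence driven by COUP-TFII from the pX2-168 reporter plasmid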
[2] = target: T1, Small ubiquitin-related modifier 1 (Homo sapiens, UniProt P63165); test: inhibitors of SUMO1 peptide binding, dose response, biochemical, fluorescence polarization, uHTS hits (AID 624382); type: functional; details: read-out: IC50_Mean
[3] = target: T2, Small ubiquitin-related modifier 2 (Homo sapiens, UniProt P61956); test: SUMO2–SIM peptide binding inhibitors, dose response, selectivity assay for SUMO1 interaction inhibitor project, biochemical, fluorescence polarization, uHTS hits (AID 624385); type: functional; details: read-out: IC50_Mean
[4] = target: T2, Small ubiquitin-related modifier 2; test: inhibitors of SUMO2 protein-protein interaction, dose response, selectivity assay for SUMO1 interaction inhibitor project, biochemical, FRET, human SUMO2, uHTS hits (AID 624384); type: functional; details: read-out: IC50_Mean
[5] = target: T1, Small ubiquitin-related modifier 1; test: inhibitors of SUMO1 partner interactions, dose response, biochemical, FRET (AID 624383); type: functional; details: read-out: IC50_Mean
[6] = P. falciparum Dd2 growth inhibitors, dose response, SYBR Green, cherry-picked samples (AID 1159567); type: functional, cell-based
[7] = HepG2 cell cytotoxicity, dose response, cytotoxicity control, cherry-picked samples (AID 1159577); type: functional, cell-based
[8] = NIH:OVCAR-3 ovarian cancer cell cytotoxicity, dose response, PAX8 inhibitor project, plate reader, dry powder samples (AID 743044); type: functional, cell-based
Paired box protein Pax-8 = Paired box protein Pax-8 (Homo sapiens, UniProt Q06710); test: inhibitors of PAX8-driven TPO luciferase reporter, dose response, RMG-I cells, cherry-pick (AID 687027); type: functional, cell-based;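 also: luciferase reporter driven by Pax8 target thyroperoxidase promoter measured by SteadyGlo luminescence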
[9] = cytotoxicity in OVCAR8 ovarian cancer cells, dose response, PAX8 project, cell-based, plate reader, dry powder samples (AID 743197); type: functional; details: OVCAR-8
[10] = target: Adenosylmethionine-8-amino-7-oxononanoate aminotransferase (Mycobacterium tuberculosis, UniProt P9WQ81); test: Mycobacterium tuberculosis BioA enzyme inhibitor Measured in Biochemical System Using Plate Reader - 2163-02_Inhibitor_Dose_CherryPick_Activity.; type: functional, Mycobacterium tuberculosis UT205
[11] = target: Disintegrin and metalloproteinase domain-containing protein 17 (Homo sapiens, UniProt P78536); test: ADAM17 protease inhibitors, dose response, counter-screen for ADAM10 exosite inhibitor project, biochemical, quenched FRET substrate (AID 743253)
[12] = ADAM10 inhibitors, peptide cleavage, dose response, biochemical, QFRET (AID 743254);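 also: ADAM10 enzyme with the DM2 quenched FRET peptide as substrate; EDANS fluorescence gain as the protease cuts the substrate; inhibitor potency against ADAM10 proteolytic activity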
Major prion protein = Major prion protein (Homo sapiens, UniProt P04156); type: functional, cell-based
[13] = target: T3, Polyadenylate-binding protein 1 (Homo sapiens, UniProt P11940); test: PABP1 MLLE–PAM2 interaction inhibitors, dose response, miRNA deadenylation inhibitor project, biochemical, fluorescence polarization, Cy5-PAM2 peptide, secondary (AID 602260); type: functional; details: read-out: IC50_Mean
[14] = target: T3, Polyadenylate-binding protein 1; test: PABP1 MLLE–PAM2 binding inhibitor potency, dose response, biochemical, fluorescence polarization, FITC-PAM2 peptide (AID 602259); type: functional; details: read-out: IC50_Mean
[15] = inhibitors of PGC1a acetylation in cells, dose response, cell-based, cherry-picked samples (AID 720514); type: functional;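 also: potency may reflect raised or lowered acetylation signal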
[16] = target: Luciferin 4-monooxygenase (Photinus pyralis, UniProt P08659); test: Counter Screen for Luciferase-based Assay Positives. [Related pubchem assays: 620, 618, 411 ]
HEK293 [17] = test: NOD1 signaling inhibitors, primary screen, cell-based, luminescence, uHTS (AID 1578); type: functional; details: Homo sapiens
HEK293 [18] = test: cells; type: functional, cell-based; details: Homo sapiens
[19] = Luminescence Cell-Based Dose Retest to Confirm Inhibitors of Cancer Stem Cells. [Related pubchem assays (depositor defined):AID2717, AID2721]; type: functional; details: Homo sapiens
HEK293 [20] = test: cells; type: functional, cell-based; details: Homo sapiens; remark: listed apart in the source
[21] = target: Nucleotide-binding oligomerization domain-containing protein 2 (Homo sapiens, UniProt Q9HC29); test: NOD2 signaling inhibitors, cell-based, luminescence, uHTS, HEK293 (AID 1566); type: functional
HT-1080 = test: cytotoxicity in HT1080 fibrosarcoma cells, cell-based, fluorescence readout (AID 620); type: functional; details: Homo sapiens
HEK293 [22] = test: cells; type: functional, cell-based; details: Homo sapiens; remark: listed apart in the source
HEK293 [23] = test: NOD2 signaling inhibitors in MDP-stimulated cells, cell-based, uHTS, luminescence (AID 2001); type: functional; details: Homo sapiens

Structure (SMILES): COc1ccc(C(=O)C2CCN(c3ncnc4sccc34)CC2)cc1
- IC50 [1]: 1.77 µM (active)

Structure (SMILES): COc1ccc(C=NNc2ccc(S(=O)(=O)Nc3ccccc3C(=O)O)cc2[N+](=O)[O-])c(OC)c1
- IC50 [2]: 5.26 µM (active)
- IC50 [3]: 3.82 µM (active)
- IC50 [4]: 6.34 µM (active)
- IC50 [5]: 50.9 µM (inactive)

Structure (SMILES): O=C(C1CCCC1)N1CC[C@@H]2[C@H](CO)Nc3ccc(C4=CCCCC4)cc3[C@@H]21
- AC50 [6]: 5.7 µM (active)
- AC50 [7]: > 39 µM (inactive)
- AC50 [8]: 25.5 µM (active)
- AC50 (Paired box protein Pax-8): 12.7 µM (active)
- AC50 [9]: 33.1 µM (active)

Structure (SMILES): CCNC(=O)[C@@H]1[C@@H](CO)[C@@H]2Cn3c(ccc(-c4cccnc4)c3=O)[C@@H]2N1Cc1ccc2c(c1)OCO2
- AC50 [10]: 9.24 µM (active)

Structure (SMILES): Oc1ccc(C[C@H]2CNC(=S)N2CC2CCCN2C[C@H](Cc2ccccc2)N2C[C@H](Cc3ccc(O)cc3)N(CC3CCCCC3)C2=S)cc1 (some centres undefined)
- IC50 [11]: > 69.5 µM (inactive)
- IC50 [12]: 7.86 µM (active)

Structure (SMILES): O=C(CSc1nc(Cc2ccccc2)nc2ccccc12)Nc1ccc2c(c1)OCCO2
- IC50 (Major prion protein): 5.39 µM (active)
- IC50 [13]: > 66 µM (inactive)
- IC50 (cells): 45.6 µM (inactive)
- IC50 [14]: > 66 µM (inactive)

Structure (SMILES): CC(=O)c1ccc(Nc2cc(C)nc3ccc(C)cc23)cc1
- AC50 [15]: 6.09 µM (active)

Structure (SMILES): Cn1c(=O)c2c(nc(OCc3cccnc3)n2Cc2ccccc2)n(C)c1=O
- AC50 [10]: 1 µM (active)

Structure (SMILES): CC(=O)Nc1ccc(SCC(=O)c2cc(C)n(Cc3cccs3)c2C)cc1
- EC50 [16]: 3.59 µM (active)
- EC50 (HEK293 [17]): > 20 µM (inactive)
- IC50 (HEK293 [18]): > 20 µM (inactive)
- AC50 [19]: 1.77 µM (active)
- IC50 (HEK293 [20]): > 20 µM (inactive)
- EC50 [21]: > 20 µM (inactive)
- EC50 (HT-1080): > 50 µM (not active)
- IC50 [1]: 23.6 µM (inactive)
- IC50 (HEK293 [22]): > 20 µM (inactive)
- IC50 (HEK293 [23]): > 20 µM (inactive)
